# Measurements as given in ChEMBL document CHEMBL6177968, “Development of sulfamoylbenzamide-based capsid assembly modulators for hepatitis B virus capsid assembly” (Eur J Med Chem, 2025).
# Key:
# Hepatitis B virus [1] = assay: Antiviral activity against HBV in human HepG2.2.15 cells assessed as reduction in viral replication incubated for 5 days by real-time PCR analysis; format: functional, organism-based; details: HepG2.2.15, 120 h
# [2] = Cytotoxicity in human HepG2.2.15 cells assessed as reduction in cell viability; format: toxicity, cell-based, HepG2 2.2.15
# [3] = Selectivity index, ratio of CC50 for cytotoxicity in human HepG2.2.15 cells assessed as reduction in cell viability to EC50 for antiviral activity against HBV in human HepG2.2.15 cells assessed as reduction in viral replication; format: toxicity, cell-based; details: read-out: Ratio CC50/EC50
# [4] = Metabolic stability in mouse liver microsomes assessed as compound remaining measured after 30 mins; format: ADME, Microsome; details: read-out: Stability
# [5] = Metabolic stability in rat liver microsomes assessed as compound remaining measured after 30 mins; format: ADME, Microsome; details: read-out: Stability
# [6] = Metabolic stability in human liver microsomes assessed as compound remaining measured after 30 mins; format: ADME, Microsome; details: read-out: Stability
# Hepatitis B virus [7] = assay: Antiviral activity against HBV in human HepG2 cells expressing NTCP assessed as reduction in viral replication; format: functional, organism-based
# Hepatitis B virus [8] = assay: Antiviral activity against HBV in human HepaRG cells assessed as reduction in viral replication; format: functional, organism-based
# [9] = Cytotoxicity in human HepG2-hNTCP cells assessed as reduction in cell viability; format: toxicity, cell-based
# [10] = Cytotoxicity in human HepaRG cells assessed as reduction in cell viability; format: toxicity, cell-based
# [11] = Selectivity index, ratio of CC50 for cytotoxicity in human HepG2-hNTCP cells assessed as reduction in cell viability to EC50 for antiviral activity against HBV in human HepG2-hNTCP cells assessed as reduction in viral replication; format: toxicity, cell-based; details: read-out: Ratio CC50/EC50
# [12] = Selectivity index, ratio of CC50 for cytotoxicity in human HepaRG cells assessed as reduction in cell viability to EC50 for antiviral activity against HBV in human HepaRG cells assessed as reduction in viral replication; format: toxicity, cell-based; details: read-out: Ratio CC50/EC50
# Hepatitis B virus [13] = assay: Antiviral activity against HBV infected in human HepG2 cells expressing NTCP assessed as viral DNA replication at 1 uM incubated for 6 days by Southern blot analysis (reference value: 100 %); format: functional; details: time 6 day
# Hepatitis B virus [14] = assay: Antiviral activity against HBV infected in human HepG2 cells expressing NTCP assessed as capsid level at 1 uM incubated for 6 days by Western blot analysis (reference value: 100 %); format: functional; details: time 6 day
# Hepatitis B virus [15] = assay: Antiviral activity against HBV infected in human HepG2 cells expressing NTCP assessed as capsid associated HBV DNA level at 1 uM incubated for 6 days by Western blot analysis (reference value: 100 %); format: functional; details: time 6 day
# Hepatitis B virus [16] = assay: Antiviral activity against HBV infected in human HepG2 cells expressing NTCP assessed as intracellular HBc level at 1 uM incubated for 6 days by Western blot analysis (reference value: 100 %); format: functional; details: time 6 day
# Hepatitis B virus [17] = assay: Antiviral activity against HBV infected in human HepG2 cells expressing NTCP assessed as ratio of capsid associated HBV DNA level at 1 uM incubated for 6 days by Western blot analysis (reference value: 100 %); format: functional; details: time 6 day
SMILES,EC50 (Hepatitis B virus [1]) [µM],CC50 [2] [µM],selectivity ratio [3],other results
Nc1cc(F)c(S(=O)(=O)NC2CCOC2)cc1C(=O)Nc1ccc(F)c(F)c1 (centres undefined),0.49,26.3,53.6,–
Nc1cc(F)c(S(=O)(=O)N2CCNCC2)cc1C(=O)Nc1ccc(F)c(F)c1,1.19,31.5,26.4,–
O=C(Nc1cc(F)c(F)c(F)c1)c1ccc(F)c(S(=O)(=O)N2CCC(O)CC2)c1,–,–,–,EC50 (Hepatitis B virus [7]): 0.32 µM; EC50 (Hepatitis B virus [8]): 3.74 µM; CC50 [9]: 24.2 µM; CC50 [10]: 23 µM; selectivity ratio [11]: 75.7; selectivity ratio [12]: 6.15; Activity (Hepatitis B virus [13]): 61%; Activity (Hepatitis B virus [14]): 136%; Activity (Hepatitis B virus [15]): 95%; Activity (Hepatitis B virus [16]): 82%; Ratio (Hepatitis B virus [17]): 69%
Nc1cc(F)c(S(=O)(=O)NC2CCOCC2)cc1C(=O)Nc1ccc(F)c(F)c1,1.4,29.5,21.1,–
Nc1cc(F)c(S(=O)(=O)N2CCOCC2)cc1C(=O)Nc1ccc(F)c(Cl)c1,> 30,198,–,–
Nc1cc(F)c(S(=O)(=O)N[C@H]2COC(=O)C2)cc1C(=O)Nc1ccc(F)c(C(F)F)c1,2.95,698,237,–
Nc1cc(F)c(S(=O)(=O)N[C@@H]2CNC2=O)cc1C(=O)Nc1ccc(F)c(C(F)F)c1,> 30,> 900,–,–
C[C@H](CO)NS(=O)(=O)c1cc(C(=O)Nc2ccc(F)c(F)c2)c(N)cc1F,0.69,204,296,–
N#Cc1cc(NC(=O)c2cc(S(=O)(=O)N3CCOCC3)c(F)cc2N)ccc1F,3.01,> 900,> 299,–
COCCNS(=O)(=O)c1cc(C(=O)Nc2ccc(F)c(F)c2)c(N)cc1F,3.02,97,32.1,–
Cc1cc(NC(=O)c2cc(S(=O)(=O)N3CCOCC3)c(F)cc2N)ccc1F,4.58,433,94.7,–
C[C@@H](NS(=O)(=O)c1cc(C(=O)Nc2ccc(F)c(C(F)F)c2)c(N)cc1F)C1COC1,0.47,187,399,–
CC(C)(NS(=O)(=O)c1cc(C(=O)Nc2ccc(F)c(C(F)F)c2)c(N)cc1F)C1COC1,0.58,161,277,remaining at 0.5 h [4]: 0.03%; remaining at 0.5 h [5]: 5.63%; remaining at 0.5 h [6]: 17.2%
Nc1cc(F)c(S(=O)(=O)NC2CNC2)cc1C(=O)Nc1ccc(F)c(F)c1,1.52,85.8,56.5,–
Nc1cc(F)c(S(=O)(=O)NC2CCNC2)cc1C(=O)Nc1ccc(F)c(F)c1 (centres undefined),7.52,109,14.5,–
C[C@@H](CO)NS(=O)(=O)c1cc(C(=O)Nc2ccc(F)c(F)c2)c(N)cc1F,2.12,156,73.7,–
Nc1cc(F)c(S(=O)(=O)N[C@@H]2CCOC2=O)cc1C(=O)Nc1ccc(F)c(C(F)F)c1,1.61,238,147,–

# More lines, main results first:
EC50 (Hepatitis B virus [1]) [µM],SMILES,CC50 [2] [µM],selectivity ratio [3],other results
0.22,Nc1cc(F)c(S(=O)(=O)N2CCS(=O)(=O)CC2)cc1C(=O)Nc1ccc(F)c(C(F)F)c1,385,1740,–
0.06,CC1(CNS(=O)(=O)c2cc(C(=O)Nc3ccc(F)c(C(F)F)c3)c(N)cc2F)COC1,855,14300,remaining at 0.5 h [4]: 1.37%; remaining at 0.5 h [5]: 8.38%; remaining at 0.5 h [6]: 23.6%
0.16,Nc1cc(F)c(S(=O)(=O)N2CCOCC2)cc1C(=O)Nc1ccc(F)c(C(F)F)c1,681,4240,–
0.18,Nc1cc(F)c(S(=O)(=O)NC2CCC2)cc1C(=O)Nc1ccc(F)c(C(F)F)c1,22.8,125,–
0.22,Nc1cc(F)c(S(=O)(=O)N2CCCOCC2)cc1C(=O)Nc1ccc(F)c(F)c1,10.7,48.6,–
0.06,CC1(NS(=O)(=O)c2cc(C(=O)Nc3ccc(F)c(C(F)F)c3)c(N)cc2F)COC1,26.1,458,–
0.36,Nc1cc(F)c(S(=O)(=O)N2CC3CCC(C2)O3)cc1C(=O)Nc1ccc(F)c(F)c1,14,38.5,–
0.44,Nc1cc(F)c(S(=O)(=O)N2CC3(COC3)C2)cc1C(=O)Nc1ccc(F)c(F)c1,170,386,–
0.13,Nc1cc(F)c(S(=O)(=O)NCC2COC2)cc1C(=O)Nc1ccc(F)c(C(F)F)c1,150,1160,remaining at 0.5 h [4]: 31.9%; remaining at 0.5 h [5]: 26%; remaining at 0.5 h [6]: 56.2%
0.1,Nc1cc(F)c(S(=O)(=O)N2CC3COCC3C2)cc1C(=O)Nc1ccc(F)c(C(F)F)c1 (centres undefined),> 900,> 9330,remaining at 0.5 h [4]: 0.09%; remaining at 0.5 h [5]: 0.79%; remaining at 0.5 h [6]: 0.76%
0.05,Nc1cc(F)c(S(=O)(=O)N2CCCOCC2)cc1C(=O)Nc1ccc(F)c(C(F)F)c1,5.14,96.2,–
0.41,Nc1cc(F)c(S(=O)(=O)N2CCOCC2)cc1C(=O)Nc1ccc(F)c(F)c1,248,610,–
0.25,Nc1cc(F)c(S(=O)(=O)N2CC3(COC3)C2)cc1C(=O)Nc1ccc(F)c(C(F)F)c1,> 900,> 3540,–
0.25,CC(C)NS(=O)(=O)c1cc(C(=O)Nc2ccc(F)c(F)c2)c(N)cc1F,9.29,36.8,–
0.07,CN(C1COC1)S(=O)(=O)c1cc(C(=O)Nc2ccc(F)c(C(F)F)c2)c(N)cc1F,7.68,115,–
